The values that follow come from patent publication US20240010640A1, “ANTAGONISTS OF THE MUSCARINIC ACETYLCHOLINE RECEPTOR M4” (Vanderbilt University, priority 2020, published 2024).

This experiment deals with T1, Human M4 (Homo sapiens, UniProt P08173).
T1 construct: Human or rat M4 cDNA, along with the chimeric G protein Gqi5, were transfected into Chinese hamster ovary (CHO-K1) cells; expressed in transfected cells; host or cells: CHO-K1 (Chinese hamster ovary, ATCC), stably expressing M4 and Gqi5
T1 sequence (P08173 1-479): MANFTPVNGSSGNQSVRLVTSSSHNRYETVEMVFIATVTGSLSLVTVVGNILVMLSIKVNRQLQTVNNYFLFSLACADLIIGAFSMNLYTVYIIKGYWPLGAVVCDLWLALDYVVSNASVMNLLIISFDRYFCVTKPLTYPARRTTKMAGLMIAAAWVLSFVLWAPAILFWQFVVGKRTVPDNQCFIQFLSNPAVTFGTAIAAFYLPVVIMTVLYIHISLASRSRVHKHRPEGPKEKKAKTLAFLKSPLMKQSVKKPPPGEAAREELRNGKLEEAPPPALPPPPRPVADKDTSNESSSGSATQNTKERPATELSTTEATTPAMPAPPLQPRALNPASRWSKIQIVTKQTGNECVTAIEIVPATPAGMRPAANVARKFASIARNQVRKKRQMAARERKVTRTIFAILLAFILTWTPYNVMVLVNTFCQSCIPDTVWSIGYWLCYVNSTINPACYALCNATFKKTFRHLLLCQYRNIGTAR
Nature of the experiment: mAChR M4 cell-based functional assay (calcium flux, antagonist mode). Particulars: for IC50: Human M4/Gqi5 CHO-K1 cells, decrease of acetylcholine response; for Emin (% ACh maximum at 30 μM): Human M4. As to the method: Human or rat M4 cDNA, along with the chimeric G protein Gqi5, were transfected into Chinese hamster ovary (CHO-K1) cells purchased from the American Type Culture Collection using Lipofectamine2000. M4/Gqi5/CHO cells were grown in Ham's F-12 medium containing 10% heat-inactivated fetal bovine serum (FBS), 20 mM HEPES, 500 μg/mL G418 sulfate, and 200 μg/mL Hygromycin B.
For high throughput measurement of agonist-evoked increases in intracellular calcium, CHO-K1 cells stably expressing muscarinic receptors were plated in growth medium lacking G418 and hygromycin at 15,000 cells/20 μL/well in Greiner 384-well black-walled, tissue culture (TC)-treated, clear-bottom plates (VWR). Cells were incubated overnight at 37° C. and 5% CO2. The next day, cells were washed using an ELX 405 (BioTek) with assay buffer; the final volume was then aspirated to 20 μL. Next, 20 μL of a 2.3 μM stock of Fluo-4/acetoxymethyl ester (Invitrogen, Carlsbad, CA), prepared as a 2.3 mM stock in DMSO and mixed in a 1:1 ratio with 10% (w/v) Pluronic F-127 and diluted in assay buffer, was added to the wells and the cell plates were incubated for 50 min at 37° C. and 5% CO2. Dye was removed by washing with the ELX 405 and the final volume was aspirated to 20 μL. Compound master plates were formatted in a 10 point concentration-response curve (CRC) format (1:3 dilutions) in 100% DMSO with a starting concentration of 10 or 1 mM using a BRAVO liquid handler (Agilent). Test compound CRCs were then transferred to daughter plates (240 nL) using the Echo acoustic plate reformatter (Labcyte, Sunnyvale, CA) and then diluted into assay buffer (40 μL) to a 2× stock using a Thermo Fisher Combi (Thermo Fisher Scientific, Waltham, MA).
Calcium flux was measured using the Functional Drug Screening System (FDSS) 6000 or 7000 (Hamamatsu Corporation, Tokyo, Japan) as an increase in the fluorescent static ratio. Compounds were applied to cells (20 μL, 2×) using the automated system of the FDSS at 2 seconds into the protocol and the data were collected at 1 Hz. At 143 s, 10 μL of an EC20 concentration of the muscarinic receptor agonist acetylcholine was added (5×), followed by the addition of 12 μL of an […] concentration of acetylcholine at the 268 s time point (5×). Agonist activity was analyzed as a concentration-dependent increase in calcium mobilization upon compound addition. Positive allosteric modulator activity was analyzed as a concentration-dependent increase in the EC20 acetylcholine response. Antagonist activity was analyzed as a concentration-dependent decrease in the EC80 acetylcholine response; for the purposes of the tables herein, an IC50 (inhibitory concentration 50) was calculated as a concentration-dependent decrease of the response elicited by an […] concentration of acetylcholine. Concentration-response curves were generated using a four-parameter logistical equation in XLFit curve fitting software (IDBS, Bridgewater, NJ) for Excel (Microsoft, Redmond, WA) or Prism (GraphPad Software, Inc., San Diego, CA) or the Dotmatics software platform (Dotmatics, Bishop's Stortford, UK).
Compounds were synthesized as described above. Activity (IC50 and Emin) was determined in the mAChR M4 cell-based functional assay as described above and the data are shown in Table 1.
In general terms: Calcium assays in cells follow changes in intracellular calcium, usually with a dye or a luminescent sensor.

As for `[2H]C([2H])(C1CCOCC1)N1C[C@H]2C[C@H](Nc3ccc(-c4ccn(C)c(=O)c4)nn3)C[C@H]2C1` [A1, 1-methyl-4-(6-(((3aR,5s,6aS)-2-((tetrahydro-2H-pyran-4-yl)methyl-d2)octahydrocyclopenta[c]pyrrol-5-yl)amino)pyridazin-3-yl)pyridin-2(1H)-one], the IC50 was determined as 81 nM and the “Emin (% ACh maximum at 30 μM)” value amounted to 5%.

In the case of `[2H]C([2H])(C1CCOCC1)N1C[C@H]2C[C@H](Nc3ccc(-c4ccc(=O)n(C)c4)nn3)C[C@H]2C1` [A2, 1-methyl-5-(6-(((3aR,5s,6aS)-2-((tetrahydro-2H-pyran-4-yl)methyl-d2)octahydrocyclopenta[c]pyrrol-5-yl)amino)pyridazin-3-yl)pyridin-2(1H)-one], the IC50 turned out to be 34 nM and the “Emin (% ACh maximum at 30 μM)” value is recorded as 4%.

Take `[2H]C([2H])(C1CCOCC1)N1C[C@H]2C[C@H](Nc3ccc(-c4cccn(C)c4=O)nn3)C[C@H]2C1` [A3, 1-methyl-3-(6-(((3aR,5s,6aS)-2-((tetrahydro-2H-pyran-4-yl)methyl-d2)octahydrocyclopenta[c]pyrrol-5-yl)amino)pyridazin-3-yl)pyridin-2(1H)-one]: the IC50 amounted to 5.9 nM and the “Emin (% ACh maximum at 30 μM)” value is recorded as 4%.

As to `Cn1cccc(-c2ccc(N[C@H]3C[C@@H]4CN(CC5CCOCC5)C[C@@H]4C3)nn2)c1=O` [A4, 1-methyl-3-(6-(((3aR,5s,6aS)-2-((tetrahydro-2H-pyran-4-yl)methyl)octahydrocyclopenta[c]pyrrol-5-yl)amino)pyridazin-3-yl)pyridin-2(1H)-one], the IC50 is 15.5 nM and the “Emin (% ACh maximum at 30 μM)” value worked out at 5%.

On to `O=c1ccc(-c2ccc(N[C@H]3C[C@@H]4CN(CC5CCOCC5)C[C@@H]4C3)nn2)cn1C(F)F` [A5, 1-(difluoromethyl)-5-(6-(((3aR,5s,6aS)-2-((tetrahydro-2H-pyran-4-yl)methyl)octahydrocyclopenta[c]pyrrol-5-yl)amino)pyridazin-3-yl)pyridin-2(1H)-one], for which the half-maximal inhibitory concentration (IC50) was 3.8 nM and the “Emin (% ACh maximum at 30 μM)” value is 4%.

In the case of `O=c1cc(-c2ccc(N[C@H]3C[C@@H]4CN(CC5CCOCC5)C[C@@H]4C3)nn2)ccn1C(F)F` [A6, 1-(difluoromethyl)-4-(6-(((3aR,5s,6aS)-2-((tetrahydro-2H-pyran-4-yl)methyl)octahydrocyclopenta[c]pyrrol-5-yl)amino)pyridazin-3-yl)pyridin-2(1H)-one], the IC50 was determined as 5.9 nM and the “Emin (% ACh maximum at 30 μM)” value is listed as 9%.

In the case of `Cn1cc(-c2ccc(N[C@H]3C[C@@H]4CN(CC5CCOCC5)C[C@@H]4C3)nn2)cnc1=O` [A7, 1-methyl-5-(6-(((3aR,5s,6aS)-2-((tetrahydro-2H-pyran-4-yl)methyl)octahydrocyclopenta[c]pyrrol-5-yl)amino)pyridazin-3-yl)pyrimidin-2(1H)-one], the half-inhibitory concentration (IC50) came out at 514 nM and the “Emin (% ACh maximum at 30 μM)” value is 7%.

As for `Cc1cc(-c2ccc(N[C@H]3C[C@@H]4CN(CC5CCOCC5)C[C@@H]4C3)nn2)c(=O)[nH]n1` [A8, 6′-methyl-6-(((3aR,5s,6aS)-2-((tetrahydro-2H-pyran-4-yl)methyl)octahydrocyclopenta[c]pyrrol-5-yl)amino)-[3,4′-bipyridazin]-3′(2′H)-one], the IC50 came out at 136 nM and the “Emin (% ACh maximum at 30 μM)” value turned out to be 8%.

Take `Cn1cc(C(F)(F)F)cc(-c2ccc(N[C@H]3C[C@@H]4CN(CC5CCOCC5)C[C@@H]4C3)nn2)c1=O` [A9, 1-methyl-3-(6-(((3aR,5s,6aS)-2-((tetrahydro-2H-pyran-4-yl)methyl)octahydrocyclopenta[c]pyrrol-5-yl)amino)pyridazin-3-yl)-5-(trifluoromethyl)pyridin-2(1H)-one]: the concentration for half-maximal inhibition (IC50) came out at 27.4 nM and the “Emin (% ACh maximum at 30 μM)” value is on record as 4%.

Consider `Cn1cc(-c2ccc(N[C@H]3C[C@@H]4CN(CC5CCCOC5)C[C@@H]4C3)nn2)ccc1=O` (stereo partly drawn) [A10, 1-methyl-5-(6-(((3aR,5s,6aS)-2-((tetrahydro-2H-pyran-3-yl)methyl)octahydrocyclopenta[c]pyrrol-5-yl)amino)pyridazin-3-yl)pyridin-2(1H)-one], for which the 50% inhibitory concentration (IC50) amounted to 129 nM and the “Emin (% ACh maximum at 30 μM)” value is 4%.

As for `Cn1cc(-c2ccc(N[C@H]3C[C@@H]4CN(CC5CCCCC5)C[C@@H]4C3)nn2)ccc1=O` [A11, 5-(6-(((3aR,5s,6aS)-2-(cyclohexylmethyl)octahydrocyclopenta[c]pyrrol-5-yl)amino)pyridazin-3-yl)-1-methylpyridin-2(1H)-one], the half-maximal inhibitory concentration (IC50) was 3.5 nM and the “Emin (% ACh maximum at 30 μM)” value worked out at 3%.

In the case of `Cn1cc(-c2ccc(N[C@H]3C[C@@H]4CN(Cc5ccccn5)C[C@@H]4C3)nn2)ccc1=O` [A12, 1-methyl-5-(6-(((3aR,5s,6aS)-2-(pyridin-2-ylmethyl)octahydrocyclopenta[c]pyrrol-5-yl)amino)pyridazin-3-yl)pyridin-2(1H)-one], the half-inhibitory concentration (IC50) was determined as 762 nM and the “Emin (% ACh maximum at 30 μM)” value turned out to be 9%.

In the case of `Cn1cc(-c2ccc(N[C@H]3C[C@@H]4CN(CCC(C)(C)C)C[C@@H]4C3)nn2)ccc1=O` [A13, 5-(6-(((3aR,5s,6aS)-2-(3,3-dimethylbutyl)octahydrocyclopenta[c]pyrrol-5-yl)amino)pyridazin-3-yl)-1-methylpyridin-2(1H)-one], the IC50 was found to be 1 nM and the “Emin (% ACh maximum at 30 μM)” value is recorded as 3%.

As for `[2H]C([2H])(C1CCOCC1)N1C[C@H]2C[C@H](Nc3ccc(-c4ccc(=O)n(CC5CC5)c4)nn3)C[C@H]2C1` [A14, 1-(cyclopropylmethyl)-5-(6-(((3aR,5s,6aS)-2-((tetrahydro-2H-pyran-4-yl)methyl-d2)octahydrocyclopenta[c]pyrrol-5-yl)amino)pyridazin-3-yl)pyridin-2(1H)-one], the half-maximal inhibitory concentration (IC50) amounted to 28.8 nM and the “Emin (% ACh maximum at 30 μM)” value came to 3%.

Consider `O=c1ccc(-c2ccc(N[C@H]3C[C@@H]4CN(CC5CCOCC5)C[C@@H]4C3)nn2)cn1CC1CC1` [A15, 1-(cyclopropylmethyl)-5-(6-(((3aR,5s,6aS)-2-((tetrahydro-2H-pyran-4-yl)methyl)octahydrocyclopenta[c]pyrrol-5-yl)amino)pyridazin-3-yl)pyridin-2(1H)-one], for which the IC50 turned out to be 19.6 nM and the “Emin (% ACh maximum at 30 μM)” value came out at 4%.

As for `Cc1cc(-c2ccc(N[C@H]3C[C@@H]4CN(CC5CCOCC5)C[C@@H]4C3)nn2)cn(C)c1=O` [A16, 1,3-dimethyl-5-(6-(((3aR,5s,6aS)-2-((tetrahydro-2H-pyran-4-yl)methyl)octahydrocyclopenta[c]pyrrol-5-yl)amino)pyridazin-3-yl)pyridin-2(1H)-one], the IC50 amounted to 1.9 nM and the “Emin (% ACh maximum at 30 μM)” value is reported as 4%.

By IC50 is commonly meant the midpoint of a concentration-inhibition curve.
